Assay results published in patent publication US20250186411A1, “Methods of Treating Disorders Associated with Overactivation of IKKB” (The United States Government as represented by the …, priority 2023, published 2025).
Where two headings read alike, the source gives them in different places.

How the values were obtained:
[1] = system: KLF15 promoter (pEZX-FR03hKLF15p human podocytes); experiment: KLF15 reporter high-throughput screening assay in human podocytes (firefly/renilla luciferase); format: cell-based; details: for fold induction at 1 µM: Homo sapiens, read-out: Fold Change (KLF15 reporter activity)
Description: Briefly, these podocytes proliferate under permissive conditions (gamma interferon at 33° C.), but differentiate under nonpermissive conditions (37° C.).
The amplified fragment contains MluI and PmeI RE sites and was subcloned into the MluI and PmeI cloning site of the pEZX-FR03 Firefly luciferase (FLuc) and Renilla luciferase (Rluc) reporter cloning vector (GeneCopoeia) to generate pEZX-FR03hKLF15p. Following verification of the sequence by restriction and μsequencing, the pEZX-FR03hKLF15p construct (which contains a puromycin resistance cassette) was transfected into human podocytes followed by selection in puromycin-containing media for 2 weeks. Surviving podocytes clones were pooled together for further analysis.
The library of compounds from the National Cancer Institute (Approved Oncology Drugs Set VI; Natural Products Set III; Diversity Set V; and Mechanistic Diversity Set II) were added to a final concentration of 1 μM in 0.5% DMSO in the low FBS cell culture media (0.2% FBS) using liquid handling system PipetMax (Gilson). After 24 hours incubation at 37° C., the Luc-Pair™ Duo-Luciferase HT Assay Kit (GeneCopoeia LF015) were used and firefly and renilla luciferase activity was determined using the SpectraMax M3 (Molecular Devices). Positive controls were all-trans retinoic acid (atRA) (1 μM) and dexamethasone (DEX) (1 μM). Negative controls were DMSO and cell-free media.
(§1) To identify small molecule inducers of KLF15 expression in human podocytes, human podocytes were generated with a dual reporter, firefly luciferase directed at the KLF15 promoter region and renilla luciferase (pEZX-FR03hKLF15p). […] The positive controls were inducers of KLF15 expression, dexamethasone (DEX) and all-trans retinoic acid (atRA), and […] and cell-free wells served as negative controls.

[2] = system: KLF15 promoter (pEZX-FR03hKLF15p human podocytes); experiment: Half maximal effective concentration (EC50) of KLF15 reporter activity; format: cell-based; details: KLF15 reporter activity, dose-response, read-out: EC50
Description: The EC50 was determined using nonlinear regression and then choosing the equation of Sigmoidal function, 4PL method (X is log(concentration); or the equation of log(agonist) vs. response—variable slope).
as §1

[3] = system: KLF15 promoter with mutation in the GRE (pEZX-FR03hKLF5p-mutant podocytes); experiment: GR-mutant KLF15 reporter assay; format: cell-based, human; details: as compared to DMSO
[4] = system: KLF15 promoter (pEZX-FR03hKLF5p human podocytes); experiment: Adriamycin treatment in human podocytes, KLF15 reporter activity; format: cell-based; details: as compared to DMSO-treated podocytes
Description: (§2) Differentiated pEZX-FR03hKLF5p human podocytes were treated with 0.4 μg/ml adriamycin (ADR) or vehicle and 1 μM KLF15 agonist or vehicle control for 24 hours. Firefly and renilla luciferase assay were measured initially to determine relative KLF15 reporter activity.

[5] = system: KLF15 promoter (pEZX-FR03hKLF5p human podocytes); experiment: Lipopolysaccharide treatment in human podocytes, KLF15 reporter activity; format: cell-based; details: as compared to DMSO
Description: (§3) Differentiated pEZX-FR03hKLF5p human podocytes were treated with 25 μg/ml lipopolysaccharide (LPS) or vehicle and 1 μM KLF15 agonist or vehicle control for 24 hours. Firefly and renilla luciferase assay were measured initially to determine relative KLF15 reporter activity.

[6] = system: human podocytes; experiment: Cell viability of podocytes (renilla activity, MTS assay); format: cell-based; details: for toxicity to human podocytes: analogue screen; for renilla activity in dose-response: higher doses (10^4 nM), relative to DMSO
Description: as §3, §2
To assess cell viability, the CellTiter 96® AQueous One Solution Reagent (Promega) was added to the culture media and plates were incubated for 2 hours at 37° C. with 5% CO2.

[7] = system: differentiated human podocytes; experiment: Actin stress fiber formation and KLF15 immunocytochemistry; format: cell-based; details: LPS-treated podocytes
Description: To determine actin stress fiber formation, differentiated human podocytes were treated with 25 μg/ml LPS or vehicle and 1 μM KLF15 agonist or vehicle control for 24 hours. Subsequently, podocytes were fixed and stained for F-actin using Alexa Fluor 647 Phalloidin (Life Technologies). Fixation, permeabilization, and staining with phalloidin were performed as per the manufacturer's protocol. […] Briefly, phalloidin staining pattern in each cell was classified into the following types: Type A (90% of cell area filled with thick cables), Type B (no thick cables but some cables present), and Type C (no cables visible in the central area of the cell). Unless specified, 100-200 cells were quantified in a blinded manner for each group in three independent experiments.
Differentiated human podocytes were initially washed with phosphate-buffered saline (PBS) and subsequently fixed with 3.7% formaldehyde in the growth medium. Podocytes were washed and permeabilized with 0.25% Triton X-100, and then blocked in 10% normal horse serum (NHS) and incubated with rabbit anti-KLF15 antibody overnight. The next day, cells were washed with PBS and incubated in Donkey anti-Rabbit IgG (H+L) Secondary Antibody, Alexa Fluor™ 568 (Invitrogen) in 10% NHS. Subsequently, cells were washed and incubated with Hoechst (Thermo Fisher Scientific) before mounting.

[8] = system: KLF15 and Synaptopodin expression; experiment: Real-time PCR of KLF15 and synaptopodin in podocytes under LPS; format: cell-based, human; details: podocytes under LPS conditions, vs DMSO
Description: (§4) Total RNA from cells was extracted by using TRIzol (Life Technologies). First-strand cDNA was prepared from total RNA (up to 1.25 μg) using the SuperScript™ IV VILO™ Master Mix (Life Technologies), and cDNA was amplified in triplicate using PowerUp™ SYBR™ Green Master Mix on an ABI QuantStudio3 (Applied Biosystems). Primers for human and mouse genes were designed using NCBI Primer-BLAST and validated for efficiency before application (Table 1). Data were normalized to housekeeping genes (GAPDH or ACTB) and presented as a fold increase compared with RNA isolated from the control group using the ΔΔCT method.

[9] = system: FVB/n mice; experiment: LPS-induced proteinuric murine model; format: in vivo, mouse; details: LPS proteinuric murine model, concurrent treatment, vs DMSO
Description: In the LPS-induced proteinuric model, all 8-week-old FVB/n mice were initially treated with LPS [intraperitoneal (IP), 10 μg/g, Sigma-Aldrich] or sterile normal saline (IP) at 0- and 24-hour time points as previously described (17). […] Urine was collected and mice were euthanized 48 hours post-LPS treatment.
Urine albumin was quantified by ELISA using a kit from Bethyl Laboratory Inc. Urine creatinine levels were measured in the same samples using the Creatinine Colorimetric Assay Kit (500701; Cayman Chemical) as per manufacturer's protocol.
Briefly, mice were perfused with PBS containing 2.5 mg/ml iron oxide and 1% BSA. At the end of perfusion, kidneys were removed, decapsulated, minced into 1 mm^3 pieces, and digested in PBS containing 1 mg/ml collagenase A. Digested tissue was subsequently passed through a 100 μm cell strainer and collected by centrifugation. The pellet was resuspended in 1 ml PBS and glomeruli were collected using a magnet. The purity of glomeruli was verified under microscopy. Total RNA was isolated from kidney glomeruli of mice using the RNeasy Kit (Qiagen, Germantown, MD).
as §4
Transmission Electron Microscopy (TEM) was done in the Central Microscopy Imaging Center at Stony Brook Medicine. Briefly, after embedding the kidney tissues in epoxy resin, ultrathin sections were stained with uranyl acetate and lead citrate, then mounted on a copper grid, and photographed under a FEI BioTwin G2 Transmission Electron Microscope with AMT XR-60 CCD digital Camera (FEI).

[10] = NCI library hits, 1 μM, 24 hours
[11] = as compared to DMSO-treated podocytes

Compound	fold induction at 1 µM [1, 10]	EC50 ([2]; Homo sapiens)	KLF15-mutant reporter activity [3]	KLF15 activity in the setting of adriamycin (ADR) [4]	KLF15 activity in the setting of LPS treatment [5]	further results
Nc1ccccc1-n1nc2ccc3ccccc3c2n1 [C-9, 2-benzo[e]benzotriazol-2-ylaniline]	2.72	76.3 nM	induced similar KLF15 activity	induced KLF15 activity		
CSc1ccc(NC(=O)Nc2ccc(C#N)cn2)cc1 [BT502]			induced KLF15 activity		maintained the elevated KLF15 activity	KLF15 activity as compared to DEX-treated podocytes [1]: higher KLF15 activity; toxicity to human podocytes [6]: no observed toxicity; renilla activity (cell viability) in the setting of LPS treatment [6, 11]: restored renilla activity
CSc1ccc(NC(=O)Nc2cc(C)ccn2)cc1 [C-7, 1-(4-Methylpyridin-2-yl)-3-(4-methylsulfanylphenyl)urea]	3.17	11.9 nM	induced similar KLF15 activity	induced KLF15 activity	maintained KLF15 activity	cell viability (renilla activity and MTT assay) in the setting of ADR [6, 11]: maintained; renilla activity in dose-response [6]: significant increase in renilla activity; KLF15 expression and actin stress fiber formation (immunostaining) [7]: restored KLF15 expression and actin stress fiber formation; KLF15 and Synaptopodin expression [8]: restored; albuminuria [9]: significantly abrogated albuminuria
CSc1ccc(NC(=O)c2ccc(O)cc2)cc1 [BT501]			induced KLF15 activity		maintained the elevated KLF15 activity	KLF15 activity as compared to DEX-treated podocytes [1]: higher KLF15 activity; toxicity to human podocytes [6]: no observed toxicity
O=C(Nc1ccc2ccccc2c1)c1ccc(Cl)cc1Cl [C-15, 2,4-dichloro-N-(naphthalen-2-yl)benzamide]	2.97	10.9 nM	induced similar KLF15 activity	induced KLF15 activity		
Cc1ccc(N/N=C2\C(=N)N(c3ccccc3)N=C2N)cc1 [C-24, (4Z)-5-imino-4-[(4-methylphenyl)hydrazinylidene]-1-phenylpyrazol-3-amine]	3.03	2670 nM				
2-[2-[(2E)-2-[(5Z)-5-(anilinomethylene)-3-ethyl-4-oxo-thiazolidin-2-ylidene[hydrazino]thiazol-5-yl]-N-(o-tolyl)acetamide [C-26]						Fold Change (KLF15 reporter activity) [1, 10]: 3.0168 fold; EC50 [2]: 484 nM
C[C@@H]1C[C@H]2[C@@H]3CCC4=CC(=O)C=C[C@]4(C)[C@@]3(F)[C@@H](O)C[C@]2(C)[C@@]1(O)C(=O)CO [DEX, dexamethasone, reference compound]						renilla activity in dose-response [6]: trend towards lower renilla activity
